Measurements taken from US20220241311A1, “METHODS AND MATERIALS FOR TREATING GLYCOSYLATION DISORDERS” (priority 2018, published 2022).
Entries after “also recorded” stand apart in the source; their conditions may differ.

Columns and labels:
[1] = test system: healthy controls (WT) fibroblasts; experiment: Nucleotide sugar analysis (UPLC-PDA), healthy controls; type: cell-based, human
Protocol: Levels of nucleotides and sugar-nucleotides were determined. Fibroblast cell pellets (5×10^6 cells per sample) were lysed and extracted in 0.37 ml ice-cold 0.5 M perchloric acid with sonication on ice. Samples were neutralized with 86 μl ice-cold neutralization solution (2.5 M KOH in 1.5 M K2HPO4) after 5 minute sonication. To remove precipitated potassium perchlorate neutralized samples were centrifuged at 4° C. and 16,400×g for 10 minutes and filtered with 0.2 μm filters. Nucleotides and sugar-nucleotides were immediately analyzed and separated via ion-pair reverse phased chromatography using an Acquity HSS T3 column (150 mm×2.1 mm, 1.7 μm, Waters) connected to an Acquity H-class UPLC system. The column temperature was set to 40° C. and the column was equilibrated with solvent A (50 mM potassium phosphate buffer, 8 mM tetrabutylammonium hydrogensulfate, pH 6.5) at a flow rate of 0.45 ml min^−1. Autosampler temperature was maintained at 6° C. […] Nucleotides were detected by Acquity PDA detector (Waters, 260 nm) and quantified using ultrapure standards (Sigma). Data acquisition and processing was performed with the Empower3 software suite (Waters).
Nucleotide sugars were measured with serum starvation during 18 hours of culturing and without of serum starvation and applying normal media.

PGM1-CDG fibroblasts = experiment: Galactose supplementation of PGM1-CDG fibroblasts, tracer based metabolomics; type: cell-based, human
Protocol: To probe the biochemical basis to galactose treatment, a tracer based metabolomics was employed to simultaneously track the activity of multiple pathways. Control and PGM1-CDG fibroblasts were cultured with 13C tagged glucose, with and without galactose. The 13C tracer was then incorporated into connected pathways after which, the cells were harvested to enable detection of metabolites by the mass-spectrometry.

[2] = cited from earlier work
[3] = test system: PGM1 deficient cell lines; experiment: Lipid-linked and protein-linked oligosaccharide analysis
[4] = 2 mM galactose added to the culture medium for 5 days

With `O=C[C@H](O)[C@@H](O)[C@@H](O)[C@H](O)CO` [D-gal, D-galactose] the ADP ([1]; WT, 1 d 2 mM Galactose) was 483.78 pmol/mio cells, the AMP ([1]; WT, 1 d 2 mM Galactose) was 10.14 pmol/mio cells and the ATP ([1]; WT, 1 d 2 mM Galactose) was 2604.27 pmol/mio cells. The CTP ([1]; WT, 1 d 2 mM Galactose) was 291.83 pmol/mio cells, the GDP ([1]; WT, 1 d 2 mM Galactose) was 194.35 pmol/mio cells and the GDP-Man ([1]; WT, 1 d 2 mM Galactose) was 72.63 pmol/mio cells. The GTP ([1]; WT, 1 d 2 mM Galactose) was 491.50 pmol/mio cells, the UDP ([1]; WT, 1 d 2 mM Galactose) was 159.94 pmol/mio cells and the UDP-Gal ([1]; WT, 1 d 2 mM Galactose) was 400.64 pmol/mio cells. It also gave a UDP-Glc ([1]; WT, 1 d 2 mM Galactose) of 345.82 pmol/mio cells, a UTP ([1]; WT, 1 d 2 mM Galactose) of 1267.16 pmol/mio cells and a cAMP ([1]; WT, 1 d 2 mM Galactose) of 77.78 pmol/mio cells. The ADP ([1]; WT, 1 d + 0.75 mM Galactose) was 506.33 pmol/mio cells, the AMP ([1]; WT, 1 d + 0.75 mM Galactose) was 16.00 pmol/mio cells and the ATP ([1]; WT, 1 d + 0.75 mM Galactose) was 2677.06 pmol/mio cells. It also gave a CTP ([1]; WT, 1 d + 0.75 mM Galactose) of 288.74 pmol/mio cells, a GDP ([1]; WT, 1 d + 0.75 mM Galactose) of 215.25 pmol/mio cells and a GDP-Man ([1]; WT, 1 d + 0.75 mM Galactose) of 97.79 pmol/mio cells. It also gave a GTP ([1]; WT, 1 d + 0.75 mM Galactose) of 519.85 pmol/mio cells, a UDP ([1]; WT, 1 d + 0.75 mM Galactose) of 164.12 pmol/mio cells and a UDP-Gal ([1]; WT, 1 d + 0.75 mM Galactose) of 298.39 pmol/mio cells. The UDP-Glc ([1]; WT, 1 d + 0.75 mM Galactose) was 313.93 pmol/mio cells, the UTP ([1]; WT, 1 d + 0.75 mM Galactose) was 1283.20 pmol/mio cells and the cAMP ([1]; WT, 1 d + 0.75 mM Galactose) was 70.82 pmol/mio cells. For the same molecule, the ADP ([1]; WT, 4 d 2 mM Galactose) was 800.89 pmol/mio cells, the AMP ([1]; WT, 4 d 2 mM Galactose) was 43.70 pmol/mio cells and the ATP ([1]; WT, 4 d 2 mM Galactose) was 4045.74 pmol/mio cells. It also gave a CTP ([1]; WT, 4 d 2 mM Galactose) of 267.44 pmol/mio cells, a GDP ([1]; WT, 4 d 2 mM Galactose) of 375.01 pmol/mio cells and a GDP-Man ([1]; WT, 4 d 2 mM Galactose) of 179.79 pmol/mio cells. For the same molecule, the GTP ([1]; WT, 4 d 2 mM Galactose) was 706.71 pmol/mio cells, the UDP ([1]; WT, 4 d 2 mM Galactose) was 209.11 pmol/mio cells and the UDP-Gal ([1]; WT, 4 d 2 mM Galactose) was 227.46 pmol/mio cells. The UDP-Glc ([1]; WT, 4 d 2 mM Galactose) was 272.66 pmol/mio cells, the UDP-GlcNAc ([1]; WT, 4 d 2 mM Galactose) was 5.74 pmol/mio cells and the UTP ([1]; WT, 4 d 2 mM Galactose) was 1538.99 pmol/mio cells. The cAMP ([1]; WT, 4 d 2 mM Galactose) was 71.87 pmol/mio cells, the ADP ([1]; WT, 4 d + 0.75 mM Galactose) was 670.35 pmol/mio cells and the AMP ([1]; WT, 4 d + 0.75 mM Galactose) was 28.04 pmol/mio cells. For the same molecule, the ATP ([1]; WT, 4 d + 0.75 mM Galactose) was 4021.73 pmol/mio cells, the CTP ([1]; WT, 4 d + 0.75 mM Galactose) was 254.91 pmol/mio cells and the GDP ([1]; WT, 4 d + 0.75 mM Galactose) was 307.92 pmol/mio cells. It also gave a GDP-Man ([1]; WT, 4 d + 0.75 mM Galactose) of 191.57 pmol/mio cells, a GTP ([1]; WT, 4 d + 0.75 mM Galactose) of 691.97 pmol/mio cells and a UDP ([1]; WT, 4 d + 0.75 mM Galactose) of 156.18 pmol/mio cells. For the same molecule, the UDP-Gal ([1]; WT, 4 d + 0.75 mM Galactose) was 219.26 pmol/mio cells, the UDP-Glc ([1]; WT, 4 d + 0.75 mM Galactose) was 268.34 pmol/mio cells and the UTP ([1]; WT, 4 d + 0.75 mM Galactose) was 1495.61 pmol/mio cells. For the same molecule, the cAMP ([1]; WT, 4 d + 0.75 mM Galactose) was 67.63 pmol/mio cells, the “UDP-Glc and UDP-Gal levels” value ([1]; control cells, increase on first day of D-gal) was “normalized at 4 days” and the “Nucleotide sugar ratio UDP-Glc/UDP-Gal, mean” value ([1]; controls, both with or without D-gal) was 1.2. For the same molecule, the “Cellular UDP-hexose pools” value (PGM1-CDG fibroblasts; [4]) was “significant increase”, the Cellular glycosylation (PGM1-CDG fibroblasts; [4]) was “improved cellular glycosylation” and the “Levels of UDP-glucose and UDP-galactose” value (PGM1-CDG fibroblasts; culture media supplemented with galactose) was “restored depleted levels; also recorded: significantly increased”. The Glycosylation (PGM1-CDG fibroblasts; culture supplemented with galactose) was “restarted stalled glycosylation”, the “Peak concentration of D-gal in blood” value ([2]; 1.0 g/kg dose) was 2.25 mM and the “Blood concentration of D-gal” value ([2]; oral dose of 0.3 g/kg) was 750 µM. For the same molecule, the Blood peak concentration ([2]; oral dose of 1.5 g/kg) was 3.5 mM, the PLO profile ([3]; all four patient cell lines) was “In none of the patients galactose supplementation had an effect” and the “Shortened LLO (Man9GlcNAc2-PP-dolichol)” value ([3]; patient 8) was “No improvement”. For the same molecule, the “Shortened LLO (Man9GlcNAc2-PP-dolichol)” value ([3]; patients 1, 2, cell-line 2013Y, 10 mM D-gal, LLO profile similar to control) was “reduction of shortened LLO”.
